Data from the supplement of paper PMC10949913.

What was measured:
Experiment in all cases: area under concentration-response curve (viability) (AUC (a.u.)); higher = less active
Details in all cases: 48 h
CU-ACC1 = system: CU-ACC1
How it was run: (§1)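 Three adrenocortical carcinoma cell lines were exposed for 48 h to library compounds at 11 concentrations in 1,536-well plates, then read by CellTiter-Glo luminescence. Signals were scaled per plate against vehicle and empty-well controls. From fitted concentration-response curves of inhibitory or non-responding classes alone, AC50 and area under the curve were obtained.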

CU-ACC2 = system: CU-ACC2
How it was run: as §1

NCI-H295R = system: NCI-H295R
How it was run: as §1

Row | Structure (SMILES) | area under concentration-response curve (CU-ACC1) | area under concentration-response curve (CU-ACC2) | area under concentration-response curve (NCI-H295R)
1 | Cc1cn2cc(C(=O)N(C)CCO)cc(N[C@@H]3CCOc4cccc(C)c43)c2n1 | 534 | 620 | 581
2 | CN(CC1=CC2=C(N\C(=N/C2=O)C)C=C1)C3=CC=C(S3)C(=O)N[C@@H](CCC(O)=O)C(O)=O | 503 | 602 | 532
3 | COc1cc([C@H]2Oc3cc([C@H]4Oc5cc(O)cc(O)c5C(=O)[C@@H]4O)ccc3O[C@@H]2CO)ccc1O | 585 | 632 | 587
4 | CN(C(=O)c1ccc(F)cc1C(F)(F)F)C1CCN(c2nnc(-c3ccnn3C)c3ccccc23)CC1 | 495 | 601 | 566
5 | CC(C)(C)Sc1c(CC(C)(C)C(=O)O)n(Cc2ccc(Cl)cc2)c2ccc(OCc3ccc4ccccc4n3)cc12 | 578 | 624 | 554
6 | Nc1ccc([S+](N)(=O)[O-])cc1 | 417 | 415 | 409
7 | CCN(CC)CCCC(C)Nc1ccnc2cc(Cl)ccc12 (stereo not drawn) | 464 | 638 | 583
8 | CN(C)N(C)C(=O)[C@@]1(Cc2ccccc2)CCCN(C(=O)[C@@H](Cc2c[nH]c3ccccc23)NC(=O)C(C)(C)N)C1 | 522 | 525 | 514
9 | C[C@H]1CNCCCN1[S+](=O)([O-])c1cccc2cncc(F)c12 | 530 | 589 | 551
10 | CC(C)C(C)/C=C/C(C)C1CCC2C3=CC=C4CC(O)CCC4(C)C3CCC21C (stereo not drawn) | 521 | 636 | 597
11 | CCN1C(=O)\C(=C/C2=CN=C(NC3=CC=C(C=C3)N4CCN(C)CC4)N=C12)C5=C(Cl)C=C(C=C5)C6=CN=CS6 | 562 | 604 | 568
12 | C[S+](=O)([O-])Nc1ccc([N+](=O)[O-])cc1Oc1ccccc1 | 544 | 639 | 583
13 | COC1=C(N2CCNC(C)C2)C(=CC3=C1N(\C=C(C(O)=O)/C3=O)C4CC4)F (stereo not drawn) | 543 | 609 | 509
14 | O=C(NCCCNc1nc(Nc2cccc(NC(=O)N3CCCC3)c2)ncc1I)c1cccs1 | 498 | 482 | 539
15 | Cn1cnc2c(F)c(Nc3ccc(Br)cc3Cl)c(C(=O)NOCCO)cc21 | 463 | 493 | 500
16 | COc1ccccc1OCC(O)CN1CCN(CC(=O)Nc2c(C)cccc2C)CC1 (stereo not drawn) | 535 | 627 | 569
17 | O=C1Nc2ccc(I)cc2/C1=C/c1cc(Br)c(O)c(Br)c1 | 500 | 585 | 506
18 | CC(C)(C)C#Cc1cc(N(C(=O)[C@H]2CC[C@H](C)CC2)[C@H]2CC[C@@H](O)CC2)c(C(=O)O)s1 | 497 | 478 | 497
19 | CCCOc1ccc(C(=O)OCCN(CC)CC)cc1N | 377 | 530 | 481
20 | Nc1nc(N)nc(-c2cc(Cl)ccc2Cl)n1 | 409 | 441 | 410
21 | O=C(/C=C/c1ccc(/C=C/C(=O)Nc2ccc(C3=NCCN3)cc2)cc1)Nc1ccc(C2=NCCN2)cc1 | 635 | 610 | 613
22 | C[C@@H](c1ccc2nccn2c1)n1nnc2ncc(-c3cnn(C)c3)nc21 | 481 | 582 | 512
23 | CCCCNc1ncc(-c2ccc(CN3CCOCC3)cn2)c(N[C@H]2CC[C@H](O)CC2)n1 | 612 | 721 | 623

Row | Structure (SMILES) | area under concentration-response curve (CU-ACC1) | area under concentration-response curve (CU-ACC2) | area under concentration-response curve (NCI-H295R)
24 | Cn1cc(-c2ccc(-c3cncc(Cl)c3N3CCC4(CCNC4=O)CC3)cc2)cn1 | 521 | 622 | 514
25 | NC(=O)OCC(COC(N)=O)c1ccccc1 | 497 | 554 | 460
26 | C[S+](=O)([O-])Oc1ccc2c(NC(N)=O)c(C(=O)c3ccc(Cl)cc3Cl)oc2c1 | 515 | 568 | 532
27 | CCCN(CCC)C(=O)C(CCC(=O)O)NC(=O)c1ccccc1 (stereo not drawn) | 504 | 570 | 524
28 | Cc1cccc(-c2nn(C(=S)Nc3ccccc3)cc2-c2ccnc3ccccc23)n1 | 506 | 590 | 470
29 | CN1CC[C@@H](NC(=O)Nc2ccc(C#N)cc2)C[C@@H]1c1nc2ccccc2[nH]1 | 485 | 595 | 555
30 | CCOC(=O)[C@@H](N)CCC(=O)N[C@@H](CSCc1ccccc1)C(=O)N[C@@H](C(=O)OCC)c1ccccc1 | 594 | 635 | 602
31 | O=C(Nc1ccc2c(c1)CCN(Cc1ncn[nH]1)C2)c1ccccc1-c1ccc(C(F)(F)F)cc1 | 374 | 505 | 476
32 | Cc1csc(NC(=O)c2sc3nc4c(c(C(F)(F)F)c3c2N)CCC4)n1 | 441 | 494 | 472
33 | CN1CCN(c2ccc(OC(F)(F)F)c(Nc3ncc4c(n3)-c3c(c(C(N)=O)nn3CCO)CC4)c2)CC1 | 498 | 587 | 460
34 | Cc1c(OCC(F)(F)F)ccnc1C[S+]([O-])c1nc2ccccc2[nH]1 (stereo not drawn) | 526 | 624 | 571
35 | CC[C@H](NC(C)C)[C@H](O)C1=CC=C(O)C2=C1\C=C/C(=O)N2 | 566 | 650 | 564
36 | COc1nc(C)nc(Cl)c1NC1=NCCN1 | 468 | 436 | 504
37 | CN(C)CC(C)(C)CNc1nn2c(-c3ccccc3)nnc2cc1C1CCC1 | 473 | 566 | 469
38 | CCCC(CCC)C(=O)NC/1=N/C(=O)N(/C=C1)[C@@H]2O[C@H](CO)[C@@H](O)C2(F)F | 496 | 481 | 543
39 | C[C@]\1(CCS\C(=N1)N)C2=CC(=C(F)C=C2F)C3=CN=CN=C3 | 478 | 544 | 509
40 | CC(=O)OCC(=O)[C@@]12OC(C)(C)O[C@@H]1C[C@H]3[C@@H]4C[C@H](F)C/5=C/C(=O)/C=C\[C@]5(C)[C@@]4(F)[C@@H](O)C[C@]23C | 439 | 528 | 519
41 | Cc1ccc(CN2CCNCC2)cc1NC(=O)CNc1ccc(F)c(F)c1 | 531 | 635 | 596
42 | OC1CCC(Nc2ncc3nc(Nc4c(F)cc(F)cc4F)n([C@@H]4CCOC4)c3n2)CC1 (stereo partly drawn) | 464 | 531 | 446
43 | N#Cc1ccc(Cn2cncc2CN2CCN(c3cccc(Cl)c3)C(=O)C2)cc1 | 520 | 578 | 514
44 | CCC(=O)N1CCOc2c(cc(-c3cc(OC)cc(OC)c3)cc2C(=O)N[C@H]2CCCN(C)C2)C1 | 500 | 550 | 463
45 | CC(C)(Sc1ccc(CCN(CCCCC2CCCCC2)C(=O)NC2CCCCC2)cc1)C(=O)O | 506 | 585 | 501
46 | C=C(C)[C@@H]1CC[C@]2(C)CC[C@]3(C)[C@H](CC[C@@H]4[C@@]5(C)CC[C@H](O)C(C)(C)[C@@H]5CC[C@]43C)[C@@H]12 | 484 | 582 | 551
